These results are taken from patent US20080045537A1, “Chemical Compounds” (priority 2004, published 2008).

Assay type in all cases: cell-based
For series [1], the system named is HIV-1 gp160 (from the HXB2 HIV strain). Nature of the series: Cell/cell fusion assay (HEK-293 expressing HIV-1 tat, rev, gp160 with HOS hCXCR4/hCCR5/hCD4/pHIV-LTR-luciferase cells). To be noted: Human immunodeficiency virus 1, HXB2, HEK293, 24 h, read-out: Fusion assay (pIC50), luciferase readout after 24 h (converted). From the text:
The complete coding sequences of HIV-1 tat (GenBank Accession No. X07861) and rev (GenBank Accession No. M34378) were cloned into pcDNA3.1 expression vectors containing G418 and hygromycin resistance genes, respectively. The complete coding sequence of the HIV-1 (HXB2 strain) gp160 envelope gene (nucleotide bases 6225-8795 of GenBank Accession No. K03455) was cloned into plasmid pCRII-TOPO. The three HIV genes were additionally inserted into the baculovirus shuttle vector, pFastBacMam1, under the transcriptional control of the CMV promoter. A construction of the pHIV-I LTR containing mutated NFkB sequences linked to the luciferase reporter gene was prepared by digesting pcDNA3.1, containing the G418 resistance gene, with Nru I and Bam HI to remove the CMV promoter. LTR-luc was then cloned into the Nru I/Bam HI sites of the plasmid vector. Plasmid preparations were performed after the plasmids were amplified in Escherichia coli strain DH5-alpha. The fidelity of the inserted sequences was confirmed by double-strand nucleotide sequencing using an ABI Prism Model 377 automated sequencer.
Recombinant BacMam baculoviruses were constructed from pFastBacMam shuttle plasmids by using the bacterial cell-based Bac-to-Bac system. Viruses were propagated in Sf9 (Spodoptera frugiperda) cells cultured in Hink's TNM-FH Insect media supplemented with 10% (v/v) fetal bovine serum and 0.1% (v/v) pluronic F-68 according to established protocols.
Human osteosarcoma (HOS) cells that naturally express human CXCR4 were transfected with human CCR5, human CD4 and the pHIV-LTR-luciferase plasmid using FuGENE 6 transfection reagent. Single cells were isolated and grown under selection condition in order to generate a stable HOS (hCXCR4/hCCR5/hCD4/pHIV-LTR-luciferase) clonal cell line. The cells were maintained in Dulbeccos modified Eagles media supplemented with 10% fetal calf serum (FCS), G418 (400 ug/ml), puromycin (1 ug/ml), mycophenolic acid (40 ug/ml), xanthine (250 ug/ml) and hypoxanthine (13.5 ug/ml) to maintain a selection pressure for cells expressing the LTR-luciferase, hCCR5 and hCD4, respectively. Human embryonic kidney (HEK-293) cells stably transfected to express the human macrophage scavenging receptor (Class A, type 1; GenBank Accession No. D90187), were maintained in DMEM/F-12 media (1:1) supplemented with 10% FCS and 1.5 ug/ml puromycin. The expression of this receptor by the HEK-293 cells enhances their ability to stick to tissue culture treated plasticware.
HEK-293 cells were harvested using enzyme-free cell dissociation buffer. The cells were resuspended in DMEM/F-12 media supplemented with 10% FCS and 1.5 ug/ml and counted. Tranductions were performed by direct addition of BacMam baculovirus containing insect cell media to cells. The cells were simultaneously transduced with BacMam baculovirus expressing HIV-1 tat, HIV-1 rev and HIV-1 gp160 (from the HXB2 HIV strain). Routinely an MOI of 10 of each virus was added to the media containing the cells. 2 mM butyric acid was also added to the cells at this stage to increase protein expression in transduced cells. The cells were subsequently mixed and seeded into a flask at 30 million cells per T225. The cells were incubated at 37° C., 5% CO2, 95% humidity for 24 h to allow for protein expression.
HEK and HOS cells were harvested in DMEM/F-12 media containing 2% FCS and DMEM media containing 2% FCS, respectively, with no selection agents added. Compounds were plated as 1 ul spots in 100% DMSO on a 96-well CulturPlate plates. HOS cells (50 ul) were added first to the wells, followed immediately by the HEK cells (50 ul). The final concentration of each cell type was 20,000 cells per well. Following these additions, the cells were returned to a tissue culture incubator (37° C.; 5% CO2/95% air) for an additional 24 h.
Following the 24 h incubation, total cellular luciferase activity was measured using the LucLite Plus assay kit (Packard, Meridien, Conn.). […]

Series [2] is described as follows: Compound cytotoxicity in the absence of virus addition (CellTiter-Glo). To be noted: human; non-infected HOS cultures; read-out: Cytotox (pIC50) (converted). On the procedure: Compounds were profiled against two HIV-1 viruses, the M-tropic (CCR5 utilizing) Ba-L strain and the T-tropic (CXCR4 utilizing) IIIB strain. Both viruses were propagated in human peripheral blood lymphocytes. Compounds were tested for there ability to block infection of the HOS cell line (expressing hCXCR4/hCCR5/hCD4/pHIV-LTR-luciferase) by either HIV-1 Ba-L or HIV-1 IIIB. Compound cytotoxicity was also examined in the absence of virus addition.
HOS cells (expressing hCXCR4/hCCR5/hCD4/pHIV-LTR-luciferase) were harvested and diluted in Dulbeccos modified Eagles media supplemented with 2% FCS and non-essential amino acid to a concentration of 60,000 cells/ml. The cells were plated into 96-well plates (100 ul per well) and the plates were placed in a tissue culture incubator (37° C.; 5% CO2/95% air) for a period of 24 h.
Subsequently, 50 ul of the desired drug solution (4 times the final concentration) was added to each well and the plates were returned to the tissue culture incubator (37° C.; 5% CO2/95% air) for 1 h. Following this incubation 50 ul of diluted virus was added to each well (approximately 2 million RLU per well of virus). The plates were returned to the tissue culture incubator (37° C.; 5% CO2/95% air) and were incubated for a further 96 h.
Following this incubation the endpoint for the virally infected cultures was quantified following addition of Steady-Glo Luciferase assay system reagent (Promega, Madison, Wis.). Cell viability or non-infected cultures was measured using a CellTiter-Glo luminescent cell viability assay system (Promega, Madison, Wis.). All luminescent readouts are performed on a Topcount luminescence detector (Packard, Meridien, Conn.).
A general note: ATP-based viability assays read luminescence as a measure of living cells.

Series [3] relates to HIV-1 IIIB (T-tropic, CXCR4 utilizing). Briefly: HOS HIV-1 infectivity assay. Summed up: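 Engineered HOS reporter cells in 2% FCS medium received compound 1 h ahead of HIV-1 (~2 million RLU/well). Cultures ran 96 h at 37 °C before luciferase quantitation; parallel uninfected wells were scored for viability by CellTiter-Glo.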
A further series addresses T1, human CXCR4 (Homo sapiens, UniProt P61073).
T1 construct: expressed in transfected cells; host or cells: HEK-293 cells (stably expressing human macrophage scavenging receptor) transduced with human CXCR4 BacMam and Gqi5 BacMam baculoviruses
Briefly: Functional FLIPR assay (block of SDF-1 alpha induced [Ca2+]i change). The note with it: HEK-293 cells with human CXCR4 BacMam and Gqi5 BacMam; antagonism of SDF-1 alpha; read-out: Functional assay (pIC50) (converted). The method, then: Human embryonic kidney (HEK-293) cells were maintained and harvested as described above. Cells were plated in 96-well, black clear bottom, poly-lysine coated plates at a concentration of 40,000 cells per well in a final volume of 100 ul containing human CXCR4BacMam (MOI=25) and Gqi5 BacMam (MOI=12.5). The cells were incubated at 37° C., 5% CO2, 95% humidity for 24 h to allow for protein expression.
After the required incubation time the cells were washed once with 50 ul of fresh serum-free DMEM/F12 media containing probenicid. 50 ul of dye solution was then added to the cells (Calcium Plus Assay Kit Dye; Molecular Devices) was dissolved in 200 ml of the above probenicid/BSA containing media and incubated for 1 h. Cell plates were transferred to a Fluorometric Imaging Plate Reader (FLIPR). Upon addition the effect of the compounds on the change in [Ca^2+]i was examined to determine if the compounds were agonists or antagonists (ability to block SDF-1 alpha activity) at the CXCR4 receptor. IC50 values are determined and pKb values are calculated using the Leff and Dougall equation: KB=IC50/((2+([agonist]/EC50ˆb)ˆ1/b−1) Where IC50 is that defined by the antagonist concentration-response curve [agonist] is the EC80 concentration of agonist used EC50 is that defined by the agonist concentration-response curve b is the slope of the agonist concentration-response curve.

[4] abbreviates: Human immunodeficiency virus 1, IIIB, as determined by the infectivity assay, strain not stated in Table 2, read-out: Activity Level.
[5] abbreviates: Human immunodeficiency virus 1, HIV-1 IIIB, HOS cells, 96 h, luciferase readout, read-out: HOS (3B).

The structures appear in SMILES notation. Like-named read-outs stand apart in the source and are kept apart here. Some results are limits rather than exact numbers.

T1 sequence (P61073 whole entry): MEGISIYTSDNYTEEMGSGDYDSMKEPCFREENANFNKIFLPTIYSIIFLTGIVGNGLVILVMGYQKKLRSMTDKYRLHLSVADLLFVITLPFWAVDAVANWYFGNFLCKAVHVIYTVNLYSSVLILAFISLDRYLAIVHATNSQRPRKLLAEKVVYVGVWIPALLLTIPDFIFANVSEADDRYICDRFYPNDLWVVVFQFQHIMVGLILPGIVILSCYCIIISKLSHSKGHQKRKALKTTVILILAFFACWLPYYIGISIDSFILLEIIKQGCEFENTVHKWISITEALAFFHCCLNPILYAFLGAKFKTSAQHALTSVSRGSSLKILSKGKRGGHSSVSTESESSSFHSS

`CN(Cc1nc2cccc(C(=O)NCCc3c[nH]cn3)c2n1C)C1CCCc2cccnc21` (stereo not drawn) [Example 7, N-[2-(1H-Imidazol-4-yl)ethyl]-1-methyl-2-{[methyl(5,6,7,8-tetrahydro-8-quinolinyl)amino]methyl}-1H-benzimidazole-7-carboxamide]: the IC50 in series [1] was 55 nM; in series [3] (setting [4]), less than 100 nM; in series [3] (setting [5]) it was 8 nM; on human CXCR4, 8.51 nM. The IC50 at 96 h in series [2] is greater than 100000 nM.
The matching figures for `CN(Cc1nc2cccc(C(=O)N3CCNCC3)c2n1C)C1CCCc2cccnc21` (stereo not drawn) [Example 8, N-Methyl-N-{[1-methyl-7-(1-piperazinylcarbonyl)-1H-benzimidazol-2-yl]methyl}-5,6,7,8-tetrahydro-8-quinolinamine]: 53.7 nM, less than 100 nM, 43 nM, 33.9 nM and greater than 100000 nM.
In the case of `CN(Cc1nc2c(C(=O)NCCc3c[nH]cn3)cccc2n1C)C1CCCc2cccnc21` (stereo not drawn) [Example 9, N-[2-(1H-Imidazol-4-yl)ethyl]-1-methyl-2-{[methyl(5,6,7,8-tetrahydro-8-quinolinyl)amino]methyl}-1H-benzimidazole-4-carboxamide], the IC50 is 75.9 nM in series [1], less than 100 nM in series [3] (setting [4]), 56 nM in series [3] (setting [5]) and 91.2 nM at human CXCR4. Also, in series [2], the IC50 at 96 h was greater than 100000 nM.
Turning to `CN(Cc1nc2c(C(=O)N3CCNCC3)cccc2n1C)C1CCCc2cccnc21` (stereo not drawn) [Example 10, N-Methyl-N-{[1-methyl-4-(1-piperazinylcarbonyl)-1H-benzimidazol-2-yl]methyl}-5,6,7,8-tetrahydro-8-quinolinamine], the IC50 in series [1] is 1910 nM; in series [3] (setting [4]), 500 to 10000 nM; in series [3] (setting [5]), 840 nM; on human CXCR4, 1410 nM. Further, in series [2], the IC50 at 96 h is greater than 100000 nM.
As to `CN(Cc1nc2cccc(C(=O)NCCCCN)c2[nH]1)C1CCCc2cccnc21` (stereo not drawn) [Example 11, N-(4-Aminobutyl)-2-{[methyl(5,6,7,8-tetrahydro-8-quinolinyl)amino]methyl}-1H-benzimidazole-4-carboxamide], the IC50 was 741 nM in series [1], 100 to 500 nM in series [3] (setting [4]), 395 nM in series [3] (setting [5]) and 257 nM at human CXCR4. The IC50 at 96 h in series [2] is greater than 100000 nM.
The matching figures for `CCN(Cc1nc2cc(C(=O)NCCc3cnc[nH]3)ccc2[nH]1)C1CCCc2cccnc21` (stereo not drawn) [Example 12, 2-{[Ethyl(5,6,7,8-tetrahydro-8-quinolinyl)amino]methyl}-N-[2-(1H-imidazol-4-yl)ethyl]-1H-benzimidazole-5-carboxamide]: 1170 nM, 100 to 500 nM, 179 nM, 447 nM and greater than 100000 nM.
In the case of `CCN(Cc1nc2cc(C(=O)NCCCN)ccc2[nH]1)C1CCCc2cccnc21` (stereo not drawn) [Example 13, N-(3-Aminopropyl)-2-{[ethyl(5,6,7,8-tetrahydro-8-quinolinyl)amino]methyl}-1H-benzimidazole-5-carboxamide], the IC50 in series [1] was 1740 nM; in series [3] (setting [4]) it was 500 to 10000 nM; in series [3] (setting [5]), 594 nM; on human CXCR4 it was 417 nM. In addition, in series [2], the IC50 at 96 h was greater than 100000 nM.
For `CCN(Cc1nc2cc(C(=O)NCCN)ccc2[nH]1)C1CCCc2cccnc21` (stereo not drawn) [Example 14, N-(2-Aminoethyl)-2-{[ethyl(5,6,7,8-tetrahydro-8-quinolinyl)amino]methyl}-1H-benzimidazole-5-carboxamide], in that order: 2570 nM, 100 to 500 nM, 440 nM, 339 nM and greater than 100000 nM.
For `CCN(Cc1nc2cccc(C(=O)NCCCN)c2[nH]1)C1CCCc2cccnc21` (stereo not drawn) [Example 15, N-(3-Aminopropyl)-2-{[ethyl(5,6,7,8-tetrahydro-8-quinolinyl)amino]methyl}-1H-benzimidazole-4-carboxamide], in that order: 355 nM, 100 to 500 nM, 141 nM, 120 nM and greater than 100000 nM.
